Reference: ChEMBL document CHEMBL1150266, “Design and synthesis of conformationally constrained glucagon-like peptide-1 derivatives with increased plasma stability and prolonged in vivo activity” (J Med Chem, 2008)
Where a SMILES comes first, the peptide text is derived from it. Bridges are numbered along the chain shown (N, C = ends). [ ]: non-standard residue; d: D form. Phe(4-COOH) = N[C@@H](Cc1ccc(C(=O)O)cc1)C(=O)O

What was measured:
[1] = molecular target: T1, Glucagon-like peptide 1 receptor (Homo sapiens, UniProt P43220); assay: Displacement of [125I]GLP1 from human GLP1R expressed in CHOK1 cells; type: cell-based, CHO-K1
T1 sequence (P43220 whole entry): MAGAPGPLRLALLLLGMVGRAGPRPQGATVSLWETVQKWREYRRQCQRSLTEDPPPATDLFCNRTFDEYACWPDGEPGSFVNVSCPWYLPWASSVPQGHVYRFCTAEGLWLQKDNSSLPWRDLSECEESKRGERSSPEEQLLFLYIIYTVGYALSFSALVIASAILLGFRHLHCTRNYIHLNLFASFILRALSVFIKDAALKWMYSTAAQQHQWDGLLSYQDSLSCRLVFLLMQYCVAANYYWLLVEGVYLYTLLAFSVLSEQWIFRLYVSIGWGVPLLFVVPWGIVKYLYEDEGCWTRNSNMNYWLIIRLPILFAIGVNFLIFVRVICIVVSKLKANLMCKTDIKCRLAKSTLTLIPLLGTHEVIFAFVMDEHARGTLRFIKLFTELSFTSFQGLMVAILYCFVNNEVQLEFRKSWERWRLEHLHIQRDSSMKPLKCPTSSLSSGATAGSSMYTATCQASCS

[2] = molecular target: T1, Glucagon-like peptide 1 receptor; assay: Agonist activity at human GLP1R expressed in CHO cells assessed as increase in cAMP level by cAMP-response element/luciferase activation assay; type: functional, cell-based
[3] = system: Plasma; assay: Stability in human plasma at 1000 ng/mL at 37 degC; type: ADME, cell-free

SMILES | IC50 [1] | EC50 [2] | Stability [3]
CC[C@H](C)[C@H](NC(=O)[C@H](Cc1ccccc1)NC(=O)[C@H](CCC(=O)O)NC(=O)[C@@H]1CCCCNC(=O)c2ccc(cc2)C[C@H](NC(=O)[C@H](CO)NC(=O)[C@H](CO)NC(=O)[C@@H](NC(=O)[C@H](CC(=O)O)NC(=O)[C@H](CO)NC(=O)[C@@H](NC(=O)[C@H](Cc2ccccc2)NC(=O)[C@@H](NC(=O)CNC(=O)[C@H](CCC(=O)O)NC(=O)CNC(=O)[C@@H](N)Cc2c[nH]cn2)[C@@H](C)O)[C@@H](C)O)C(C)C)C(=O)N[C@@H](CC(C)C)C(=O)N[C@@H](CCC(=O)O)C(=O)NCC(=O)N[C@@H](CCC(N)=O)C(=O)N[C@@H](C)C(=O)N[C@@H](C)C(=O)N1)C(=O)N[C@@H](C)C(=O)N[C@@H](Cc1c[nH]c2ccccc12)C(=O)N[C@@H](CC(C)C)C(=O)N[C@H](C(=O)N[C@@H](CCCCN)C(=O)NCC(=O)N[C@@H](CCCNC(=N)N)C(=O)NCC(N)=O)C(C)C (H-HGEGTFTSDVSS[Phe(4-COOH)]LEGQAAKEFIAWLVKGRG-NH2; lactam 13-20) | 2000 nM | 9 nM | –
CC[C@H](C)[C@H](NC(=O)[C@H](Cc1ccccc1)NC(=O)[C@H](CCC(=O)O)NC(=O)[C@@H]1CCCCNC(=O)C[C@H](NC(=O)[C@H](CCC(=O)O)NC(=O)[C@H](CC(C)C)NC(=O)[C@H](Cc2ccc(O)cc2)NC(=O)[C@H](CO)NC(=O)[C@H](CO)NC(=O)[C@@H](NC(=O)[C@H](CC(=O)O)NC(=O)[C@H](CO)NC(=O)[C@@H](NC(=O)[C@H](Cc2ccccc2)NC(=O)[C@@H](NC(=O)CNC(=O)[C@H](CCC(=O)O)NC(=O)CNC(=O)[C@@H](N)Cc2c[nH]cn2)[C@@H](C)O)[C@@H](C)O)C(C)C)C(=O)N[C@@H](CCC(N)=O)C(=O)N[C@@H](C)C(=O)N[C@@H](C)C(=O)N1)C(=O)N[C@@H](C)C(=O)N[C@@H](Cc1c[nH]c2ccccc12)C(=O)N[C@@H](CC(C)C)C(=O)N[C@H](C(=O)N[C@@H](CCCCN)C(=O)NCC(=O)N[C@@H](CCCNC(=N)N)C(=O)NCC(N)=O)C(C)C (H-HGEGTFTSDVSSYLEDQAAKEFIAWLVKGRG-NH2; lactam 16-20) | 64 nM | 0.14 nM | –
CC(C)C[C@H](NC(=O)[C@H](Cc1ccc(O)cc1)NC(=O)[C@H](CO)NC(=O)[C@H](CO)NC(=O)[C@@H](NC(=O)[C@H](CC(=O)O)NC(=O)[C@H](CO)NC(=O)[C@@H](NC(=O)[C@H](Cc1ccccc1)NC(=O)[C@@H](NC(=O)CNC(=O)[C@H](CCC(=O)O)NC(=O)CNC(=O)[C@@H](N)Cc1c[nH]cn1)[C@@H](C)O)[C@@H](C)O)C(C)C)C(=O)N[C@@H](CCC(=O)O)C(=O)NCC(=O)N[C@@H](CCC(N)=O)C(=O)N[C@@H](C)C(=O)N[C@H]1CCC(=O)NCCCC[C@@H](C(=O)N[C@@H](C)C(=O)N[C@@H](Cc2c[nH]c3ccccc23)C(=O)N[C@@H](CC(C)C)C(=O)N[C@H](C(=O)N[C@@H](CCCCN)C(=O)NCC(=O)N[C@@H](CCCNC(=N)N)C(=O)NCC(N)=O)C(C)C)NC(=O)[C@H](Cc2ccccc2)NC(=O)[C@H](CCC(=O)O)NC(=O)[C@H](CCCCN)NC1=O (H-HGEGTFTSDVSSYLEGQAEKEFKAWLVKGRG-NH2; lactam 19-23) | > 1000 nM | 15 nM | –
CC[C@H](C)[C@H](NC(=O)[C@H](Cc1ccccc1)NC(=O)[C@H](CCC(=O)O)NC(=O)[C@@H]1CCCCNC(=O)CC[C@H](NC(=O)[C@H](CCC(=O)O)NC(=O)[C@H](CC(C)C)NC(=O)[C@H](Cc2ccc(O)cc2)NC(=O)[C@H](CO)NC(=O)[C@H](CO)NC(=O)[C@@H](NC(=O)[C@H](CC(=O)O)NC(=O)[C@H](CO)NC(=O)[C@@H](NC(=O)[C@H](Cc2ccccc2)NC(=O)[C@@H](NC(=O)CNC(=O)[C@H](CCC(=O)O)NC(=O)CNC(=O)[C@@H](N)Cc2c[nH]cn2)[C@@H](C)O)[C@@H](C)O)C(C)C)CC(=O)N[C@@H](CCC(N)=O)C(=O)N[C@@H](C)C(=O)N[C@@H](C)C(=O)N1)C(=O)N[C@@H](C)C(=O)N[C@@H](Cc1c[nH]c2ccccc12)C(=O)N[C@@H](CC(C)C)C(=O)N[C@H](C(=O)N[C@@H](CCCCN)C(=O)NCC(=O)N[C@@H](CCCNC(=N)N)C(=O)NCC(N)=O)C(C)C | > 500 nM | 1.8 nM | –
CC[C@H](C)[C@H](NC(=O)[C@H](Cc1ccccc1)NC(=O)[C@H](CCC(=O)O)NC(=O)[C@@H]1CCC(=O)NCCCC[C@H](NC(=O)[C@H](CCC(=O)O)NC(=O)[C@H](CC(C)C)NC(=O)[C@H](Cc2ccc(O)cc2)NC(=O)[C@H](CO)NC(=O)[C@H](CO)NC(=O)[C@@H](NC(=O)[C@H](CC(=O)O)NC(=O)[C@H](CO)NC(=O)[C@@H](NC(=O)[C@H](Cc2ccccc2)NC(=O)[C@@H](NC(=O)CNC(=O)[C@H](CCC(=O)O)NC(=O)CNC(=O)[C@@H](N)Cc2c[nH]cn2)[C@@H](C)O)[C@@H](C)O)C(C)C)C(=O)N[C@@H](CCC(N)=O)C(=O)N[C@@H](C)C(=O)N[C@@H](C)C(=O)N1)C(=O)N[C@@H](C)C(=O)N[C@@H](Cc1c[nH]c2ccccc12)C(=O)N[C@@H](CC(C)C)C(=O)N[C@H](C(=O)N[C@@H](CCCCN)C(=O)NCC(=O)N[C@@H](CCCNC(=N)N)C(=O)NCC(N)=O)C(C)C (H-HGEGTFTSDVSSYLEKQAAEEFIAWLVKGRG-NH2; lactam 16-20) | 2.7 nM | 0.008 nM | –
CC[C@H](C)[C@H](NC(=O)[C@H](Cc1ccccc1)NC(=O)[C@H](CCC(=O)O)NC(=O)[C@H](CCCCN)NC(=O)[C@H](C)NC(=O)[C@H](C)NC(=O)[C@H](CCC(N)=O)NC(=O)C(C)(C)NC(=O)[C@H](CCC(=O)O)NC(=O)[C@H](CC(C)C)NC(=O)[C@H](Cc1ccc(O)cc1)NC(=O)[C@H](CO)NC(=O)[C@H](CO)NC(=O)[C@@H](NC(=O)[C@H](CC(=O)O)NC(=O)[C@H](CO)NC(=O)[C@@H](NC(=O)[C@H](Cc1ccccc1)NC(=O)[C@@H](NC(=O)CNC(=O)[C@H](CCC(=O)O)NC(=O)CNC(=O)[C@@H](N)Cc1c[nH]cn1)[C@@H](C)O)[C@@H](C)O)C(C)C)C(=O)N[C@@H](C)C(=O)N[C@@H](Cc1c[nH]c2ccccc12)C(=O)N[C@@H](CC(C)C)C(=O)N[C@H](C(=O)N[C@@H](CCCCN)C(=O)NCC(=O)N[C@@H](CCCNC(=N)N)C(=O)NCC(N)=O)C(C)C | 2.9 nM | – | Stable

More lines, main results first:

IC50 [1] | EC50 [2] | SMILES | Stability [3]
16 nM | 0.024 nM | CC[C@H](C)[C@@H]1NC(=O)[C@H](Cc2ccccc2)NC(=O)[C@H](CCC(=O)O)NC(=O)[C@@H](NC(=O)[C@H](C)NC(=O)[C@H](C)NC(=O)[C@H](CCC(N)=O)NC(=O)CNC(=O)[C@H](CCC(=O)O)NC(=O)[C@H](CC(C)C)NC(=O)[C@H](Cc2ccc(O)cc2)NC(=O)[C@H](CO)NC(=O)[C@H](CO)NC(=O)[C@@H](NC(=O)[C@H](CC(=O)O)NC(=O)[C@H](CO)NC(=O)[C@@H](NC(=O)[C@H](Cc2ccccc2)NC(=O)[C@@H](NC(=O)CNC(=O)[C@H](CCC(=O)O)NC(=O)CNC(=O)[C@@H](N)Cc2cnc[nH]2)[C@@H](C)O)[C@@H](C)O)C(C)C)CCC(=O)NCCCC[C@@H](C(=O)N[C@@H](Cc2c[nH]c3ccccc23)C(=O)N[C@@H](CC(C)C)C(=O)N[C@H](C(=O)N[C@@H](CCCCN)C(=O)NCC(=O)N[C@@H](CCCNC(=N)N)C(=O)NCC(N)=O)C(C)C)NC1=O | –
6.2 nM | 0.004 nM | CC[C@H](C)[C@H](NC(=O)[C@H](Cc1ccccc1)NC(=O)[C@H](CCC(=O)O)NC(=O)[C@@H]1CCCCNC(=O)CCC[C@H](NC(=O)[C@H](CCC(=O)O)NC(=O)[C@H](CC(C)C)NC(=O)[C@H](Cc2ccc(O)cc2)NC(=O)[C@H](CO)NC(=O)[C@H](CO)NC(=O)[C@@H](NC(=O)[C@H](CC(=O)O)NC(=O)[C@H](CO)NC(=O)[C@@H](NC(=O)[C@H](Cc2ccccc2)NC(=O)[C@@H](NC(=O)CNC(=O)[C@H](CCC(=O)O)NC(=O)CNC(=O)[C@@H](N)Cc2c[nH]cn2)[C@@H](C)O)[C@@H](C)O)C(C)C)C(=O)N[C@@H](CCC(N)=O)C(=O)N[C@@H](C)C(=O)N[C@@H](C)C(=O)N1)C(=O)N[C@@H](C)C(=O)N[C@@H](Cc1c[nH]c2ccccc12)C(=O)N[C@@H](CC(C)C)C(=O)N[C@H](C(=O)N[C@@H](CCCCN)C(=O)NCC(=O)N[C@@H](CCCNC(=N)N)C(=O)NCC(N)=O)C(C)C | –
3.6 nM | 0.006 nM | CC[C@H](C)[C@H](NC(=O)[C@H](Cc1ccccc1)NC(=O)[C@H](CCC(=O)O)NC(=O)[C@H](CCCCN)NC(=O)[C@H](C)NC(=O)[C@H](C)NC(=O)[C@H](CCC(N)=O)NC(=O)[C@@H]1CCCCNC(=O)CC[C@H](NC(=O)[C@H](CO)NC(=O)[C@@H](NC(=O)[C@H](CC(=O)O)NC(=O)[C@H](CO)NC(=O)[C@@H](NC(=O)[C@H](Cc2ccccc2)NC(=O)[C@@H](NC(=O)CNC(=O)[C@H](CCC(=O)O)NC(=O)CNC(=O)[C@@H](N)Cc2cnc[nH]2)[C@@H](C)O)[C@@H](C)O)C(C)C)C(=O)N[C@@H](Cc2ccc(O)cc2)C(=O)N[C@@H](CC(C)C)C(=O)N[C@@H](CCC(=O)O)C(=O)N1)C(=O)N[C@@H](C)C(=O)N[C@@H](Cc1c[nH]c2ccccc12)C(=O)N[C@@H](CC(C)C)C(=O)N[C@H](C(=O)N[C@@H](CCCCN)C(=O)NCC(=O)N[C@@H](CCCNC(=N)N)C(=O)NCC(N)=O)C(C)C (H-HGEGTFTSDVSEYLEKQAAKEFIAWLVKGRG-NH2; lactam 12-16) | Stable
17 nM | 0.077 nM | CC[C@H](C)[C@H](NC(=O)[C@H](Cc1ccccc1)NC(=O)[C@H](CCC(=O)O)NC(=O)[C@H](CCCCN)NC(=O)[C@H](C)NC(=O)[C@H](C)NC(=O)[C@@H]1CCCCNC(=O)CC[C@H](NC(=O)[C@H](CO)NC(=O)[C@H](CO)NC(=O)[C@@H](NC(=O)[C@H](CC(=O)O)NC(=O)[C@H](CO)NC(=O)[C@@H](NC(=O)[C@H](Cc2ccccc2)NC(=O)[C@@H](NC(=O)CNC(=O)[C@H](CCC(=O)O)NC(=O)CNC(=O)[C@@H](N)Cc2c[nH]cn2)[C@@H](C)O)[C@@H](C)O)C(C)C)C(=O)N[C@@H](CC(C)C)C(=O)N[C@@H](CCC(=O)O)C(=O)NCC(=O)N1)C(=O)N[C@@H](C)C(=O)N[C@@H](Cc1c[nH]c2ccccc12)C(=O)N[C@@H](CC(C)C)C(=O)N[C@H](C(=O)N[C@@H](CCCCN)C(=O)NCC(=O)N[C@@H](CCCNC(=N)N)C(=O)NCC(N)=O)C(C)C (H-HGEGTFTSDVSSELEGKAAKEFIAWLVKGRG-NH2; lactam 13-17) | –
